In publication PMC5641347, “Aii810, a Novel Cold-Adapted N-Acylhomoserine Lactonase Discovered in a Metagenome, Can Strongly Attenuate Pseudomonas aeruginosa Virulence Factors and Biofilm Formation” (Frontiers in Microbiology, 2017):

System: T1, Aii810
T1 construct: E. coli BL21(DE3), Ni-NTA
Experiment: p-nitrophenol release at […] nm, Michaelis-Menten fit
Assay type: biochemical, uncultured bacterium
Conditions: 20°C, pH 6.5

CC(=O)Oc1ccc([N+](=O)[O-])cc1 [C2, ρ-nitrophenyl acetate]
Km: 205 µM
